Experiments:
cellular TGF-β R1 ALK5 = target: T1, cellular TGF-β R1 ALK5 (Homo sapiens, UniProt P36897); experiment: Cellular inhibition of ALK5 (CellSensor SBE-bla HEK 293T beta-lactamase reporter); format: cell-based; conditions: cellular inhibition of ALK5, SBE-bla HEK 293T cells, TGFb-1 stimulated 5 hours; average where measured in multiple experiments
T1 construct: host or cells: CellSensor SBE-bla HEK 293T
T1 sequence (P36897 34-503): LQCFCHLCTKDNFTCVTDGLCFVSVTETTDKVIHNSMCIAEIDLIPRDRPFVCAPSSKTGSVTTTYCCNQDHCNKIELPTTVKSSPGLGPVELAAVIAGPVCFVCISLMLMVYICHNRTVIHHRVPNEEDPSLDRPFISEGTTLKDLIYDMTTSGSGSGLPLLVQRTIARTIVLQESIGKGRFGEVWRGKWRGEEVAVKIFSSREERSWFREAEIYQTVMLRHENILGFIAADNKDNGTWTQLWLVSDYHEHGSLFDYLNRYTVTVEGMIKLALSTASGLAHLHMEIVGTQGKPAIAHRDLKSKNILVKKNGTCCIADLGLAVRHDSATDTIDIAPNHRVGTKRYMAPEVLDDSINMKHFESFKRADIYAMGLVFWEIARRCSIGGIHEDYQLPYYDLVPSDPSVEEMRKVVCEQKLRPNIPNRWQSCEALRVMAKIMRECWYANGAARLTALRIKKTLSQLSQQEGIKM
In short: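 pIC50 derives from non-linear fitting of percent inhibition of the 460/530 nm CCF4-AM emission ratio, relative to DMSO+TGF-β wells. HEK 293T SBE-bla cells received compound (0.5% DMSO) for 1 h, TGFb-1 (100 ng/mL stock) for 5 h at 37 °C, then substrate 2 h at RT.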

TGF-β R1 ALK5 = target: T2, TGF-β R1 ALK5 (Homo sapiens, UniProt P36897); experiment: In vitro inhibition of ALK5 (LanthaScreen activity assay, TR-FRET); format: biochemical
T2 construct: purchased Invitrogen PV5837
T2 sequence (P36897 34-503): T1 sequence (P36897 34-503)

SMILES	IC50 (cellular TGF-β R1 ALK5) [nM]	IC50 (TGF-β R1 ALK5) [nM]
Cc1ccc(F)c(-c2cc(Nc3ccnc4cn(C[C@@H](C)O)nc34)ccn2)n1 [Example 114, (R)-1-(7-(3′-fluoro-6′-methyl-2,2′-bipyridin-4-ylamino)-2H-pyrazolo[4,3-b]pyridin-2-yl)propan-2-ol]	1260	158
CCNC(=O)n1ncc2nccc(Nc3cc(-c4nc(C)ccc4F)ncc3C)c21 [Example 115, N-ethyl-7-(3′-fluoro-5,6′-dimethyl-2,2′-bipyridin-4-ylamino)-1H-pyrazolo[4,3-b]pyridine-1-carboxamide]	6.31	< 1
Cc1ccc(F)c(-c2cc(Nc3ccnc4cn(CC(=O)NC5CC5)nc34)c(C)cn2)n1 [Example 118, N-cyclopropyl-2-(7-(3′-fluoro-5,6′-dimethyl-2,2′-bipyridin-4-ylamino)-2H-pyrazolo[4,3-b]pyridin-2-yl)acetamide]	794	100
Cc1ccc(F)c(-c2cc(Nc3ccnc4cn(CCC(C)(C)O)nc34)ccn2)n1 [Example 119, 4-(7-(3′-fluoro-6′-methyl-2,2′-bipyridin-4-ylamino)-2H-pyrazolo[4,3-b]pyridin-2-yl)-2-methylbutan-2-ol]	79.4	20
Cc1ccc(F)c(-c2cc(Nc3ccnc4cn(CCC(C)(C)O)nc34)c(C)cn2)n1 [Example 120, 4-(7-(3′-fluoro-5,6′-dimethyl-2,2′-bipyridin-4-ylamino)-2H-pyrazolo[4,3-b]pyridin-2-yl)-2-methylbutan-2-ol]	200	20
Cc1ccc(F)c(-c2cc(Nc3ccnc4cn(C5CC5)nc34)c(C)cn2)n1 [Example 122, 2-cyclopropyl-N-(3′-fluoro-5,6′-dimethyl-2,2′-bipyridin-4-yl)-2H-pyrazolo[4,3-b]pyridin-7-amine]	10	2
Cc1ccc(F)c(-c2cc(Nc3ccnc4cnn(C)c34)c(C)cn2)n1 [Example 124, N-(3′-fluoro-5,6′-dimethyl-2,2′-bipyridin-4-yl)-1-methyl-1H-pyrazolo[4,3-b]pyridin-7-amine]	6.31	3.98
CCn1cc2nccc(Nc3ccnc(-c4nc(C)ccc4F)c3)c2n1 [Example 125, 2-ethyl-N-(3′-fluoro-6′-methyl-2,2′-bipyridin-4-yl)-2H-pyrazolo[4,3-b]pyridin-7-amine]	39.8	15.8

The remaining compounds from weak to strong by IC50 (cellular TGF-β R1 ALK5), led by results:

IC50 (cellular TGF-β R1 ALK5) [nM]	IC50 (TGF-β R1 ALK5) [nM]	SMILES
1580	50.1	Cc1ccc(F)c(-c2cc(Nc3ccnc4cnn(CC(O)C(F)(F)F)c34)ccn2)n1 (centres unmarked) [Example 113, 1,1,1-trifluoro-3-(7-(3′-fluoro-6′-methyl-2,2′-bipyridin-4-ylamino)-1H-pyrazolo[4,3-b]pyridin-1-yl)propan-2-ol]
501	63.1	Cc1ccc(F)c(-c2cc(Nc3ccnc4cn(CC(O)C(F)(F)F)nc34)ccn2)n1 (centres unmarked) [Example 112, 1,1,1-trifluoro-3-(7-(3′-fluoro-6′-methyl-2,2′-bipyridin-4-ylamino)-2H-pyrazolo[4,3-b]pyridin-2-yl)propan-2-ol]
126	10	Cc1ccc(F)c(-c2cc(Nc3ccnc4cnn(CC(=O)NC5CC5)c34)c(C)cn2)n1 [Example 117, N-cyclopropyl-2-(7-(3′-fluoro-5,6′-dimethyl-2,2′-bipyridin-4-ylamino)-1H-pyrazolo[4,3-b]pyridin-1-yl)acetamide]
25.1	1	CNC(=O)n1ncc2nccc(Nc3cc(-c4cc(F)ccc4F)ncc3C)c21 [Example 116, 7-(2-(2,5-difluorophenyl)-5-methylpyridin-4-ylamino)-N-methyl-1H-pyrazolo[4,3-b]pyridine-1-carboxamide]
12.6	3.16	Cc1ccc(F)c(-c2cc(Nc3ccnc4cn(C5CC5)nc34)ccn2)n1 [Example 121, 2-cyclopropyl-N-(3′-fluoro-6′-methyl-2,2′-bipyridin-4-yl)-2H-pyrazolo[4,3-b]pyridin-7-amine]
